{"source": "the kinase profiling compilation of Christmann-Franck et al. (2016)", "experiment_in_all_cases": "KINOMEscan competition binding", "settings_in_all_cases": "compound 10.0 µM", "key": {"[1]": {"target": "MAPK11 (human) (UniProt Q15759)"}, "[2]": {"target": "STK4 (human) (UniProt Q13043)"}, "[3]": {"target": "AURKB (human) (UniProt Q96GD4)"}, "[4]": {"target": "EPHA2 (human) (UniProt P29317)"}, "[5]": {"target": "STK24 (human) (UniProt Q9Y6E0)"}, "[6]": {"target": "PLK2 (human) (UniProt Q9NYY3)", "sequence (Q9NYY3 whole entry, looked up)": "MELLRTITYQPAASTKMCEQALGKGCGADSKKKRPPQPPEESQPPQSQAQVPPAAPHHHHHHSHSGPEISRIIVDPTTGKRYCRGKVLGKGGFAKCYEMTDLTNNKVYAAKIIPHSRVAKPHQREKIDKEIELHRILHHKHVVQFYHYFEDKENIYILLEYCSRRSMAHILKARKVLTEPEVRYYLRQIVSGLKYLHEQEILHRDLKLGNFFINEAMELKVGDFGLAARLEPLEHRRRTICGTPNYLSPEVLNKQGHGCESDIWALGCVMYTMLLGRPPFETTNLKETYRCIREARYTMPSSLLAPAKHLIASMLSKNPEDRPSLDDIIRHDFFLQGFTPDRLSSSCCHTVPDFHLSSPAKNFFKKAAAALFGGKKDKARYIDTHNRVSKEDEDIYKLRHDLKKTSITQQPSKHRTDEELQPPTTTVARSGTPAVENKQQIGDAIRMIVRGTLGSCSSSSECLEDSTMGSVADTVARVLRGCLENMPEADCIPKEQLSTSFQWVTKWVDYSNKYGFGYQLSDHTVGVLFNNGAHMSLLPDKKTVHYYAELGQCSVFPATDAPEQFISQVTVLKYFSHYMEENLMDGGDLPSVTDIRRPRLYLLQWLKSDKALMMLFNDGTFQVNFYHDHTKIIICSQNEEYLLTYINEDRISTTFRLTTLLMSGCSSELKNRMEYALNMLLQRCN"}, "[7]": {"target": "MAP3K7 (human) (UniProt O43318)"}, "[8]": {"target": "MYLK2 (human) (UniProt Q9H1R3)"}, "[9]": {"tested_on": "ABL1 (human), P00519 [Y253F]"}, "[10]": {"target": "EPHB6 (human) (UniProt O15197)"}, "[11]": {"target": "ERBB4 (human) (UniProt Q15303)", "sequence (Q15303 whole entry, looked up)": "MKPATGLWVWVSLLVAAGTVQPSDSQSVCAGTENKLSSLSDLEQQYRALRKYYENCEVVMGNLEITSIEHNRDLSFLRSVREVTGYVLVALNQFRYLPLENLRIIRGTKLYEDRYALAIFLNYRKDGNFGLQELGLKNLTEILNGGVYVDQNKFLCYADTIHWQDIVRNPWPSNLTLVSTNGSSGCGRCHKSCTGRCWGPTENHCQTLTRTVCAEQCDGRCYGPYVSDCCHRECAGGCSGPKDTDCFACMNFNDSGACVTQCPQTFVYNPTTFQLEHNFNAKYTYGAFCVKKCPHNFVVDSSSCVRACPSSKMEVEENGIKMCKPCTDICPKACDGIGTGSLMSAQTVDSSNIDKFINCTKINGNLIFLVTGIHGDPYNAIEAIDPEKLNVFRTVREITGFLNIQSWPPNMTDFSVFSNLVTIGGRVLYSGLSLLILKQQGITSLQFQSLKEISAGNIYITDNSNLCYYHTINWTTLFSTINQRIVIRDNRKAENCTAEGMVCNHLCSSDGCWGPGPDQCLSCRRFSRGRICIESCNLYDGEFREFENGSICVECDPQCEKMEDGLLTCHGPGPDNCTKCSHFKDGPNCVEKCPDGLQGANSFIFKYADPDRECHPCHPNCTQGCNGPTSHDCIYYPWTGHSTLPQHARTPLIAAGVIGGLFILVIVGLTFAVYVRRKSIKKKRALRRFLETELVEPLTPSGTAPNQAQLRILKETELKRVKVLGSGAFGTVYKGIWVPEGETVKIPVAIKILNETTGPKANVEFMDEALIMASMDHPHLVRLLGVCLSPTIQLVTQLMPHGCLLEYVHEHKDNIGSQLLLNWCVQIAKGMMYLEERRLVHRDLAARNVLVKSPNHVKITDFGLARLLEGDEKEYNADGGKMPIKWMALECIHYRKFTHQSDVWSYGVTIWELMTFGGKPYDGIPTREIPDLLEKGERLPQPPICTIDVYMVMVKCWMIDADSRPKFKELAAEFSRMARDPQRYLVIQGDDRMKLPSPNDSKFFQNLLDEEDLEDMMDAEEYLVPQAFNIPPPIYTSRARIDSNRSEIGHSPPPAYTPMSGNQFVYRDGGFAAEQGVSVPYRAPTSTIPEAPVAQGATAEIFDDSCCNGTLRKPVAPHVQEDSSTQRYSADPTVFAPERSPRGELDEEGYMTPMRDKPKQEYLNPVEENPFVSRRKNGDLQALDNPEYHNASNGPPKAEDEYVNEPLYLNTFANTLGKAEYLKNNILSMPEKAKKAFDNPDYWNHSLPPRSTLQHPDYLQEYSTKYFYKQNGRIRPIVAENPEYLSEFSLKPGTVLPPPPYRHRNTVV"}, "[12]": {"target": "RPS6KA6 KD2 (human) (UniProt Q9UK32)"}, "[13]": {"target": "MUSK (human) (UniProt O15146)"}, "[14]": {"target": "RET (human) (UniProt P07949)"}, "[15]": {"target": "CDKL3 (human) (UniProt Q8IVW4)"}, "[16]": {"target": "TSSK1B (human) (UniProt Q9BXA7)"}, "[17]": {"target": "ZAP70 (human) (UniProt P43403)"}, "[18]": {"target": "SIK1 (human) (UniProt P57059)"}, "[19]": {"target": "CAMKK1 (human) (UniProt Q8N5S9)"}, "[20]": {"tested_on": "EGFR (human), P00533 [752-759 del]"}, "[21]": {"target": "RPS6KA5 KD2 (human) (UniProt O75582)"}, "[22]": {"target": "PRKAA1 (human) (UniProt Q13131)", "sequence (Q13131 whole entry, looked up)": "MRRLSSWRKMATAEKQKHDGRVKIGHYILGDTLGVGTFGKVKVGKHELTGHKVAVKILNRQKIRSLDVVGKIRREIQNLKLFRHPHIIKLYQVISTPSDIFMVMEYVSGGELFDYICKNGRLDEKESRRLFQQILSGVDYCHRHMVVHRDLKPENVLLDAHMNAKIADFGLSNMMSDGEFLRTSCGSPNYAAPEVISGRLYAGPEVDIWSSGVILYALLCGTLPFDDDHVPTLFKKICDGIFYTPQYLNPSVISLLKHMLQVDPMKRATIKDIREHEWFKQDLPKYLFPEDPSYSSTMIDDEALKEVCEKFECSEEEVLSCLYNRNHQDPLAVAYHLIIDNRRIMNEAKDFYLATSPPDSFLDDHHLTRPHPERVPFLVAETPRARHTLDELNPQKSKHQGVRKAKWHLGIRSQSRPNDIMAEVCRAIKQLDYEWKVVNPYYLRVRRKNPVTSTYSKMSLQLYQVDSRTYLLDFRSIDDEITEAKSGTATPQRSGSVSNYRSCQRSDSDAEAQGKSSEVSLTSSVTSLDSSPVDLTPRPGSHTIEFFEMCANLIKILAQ"}, "[23]": {"tested_on": "ABL1 (human), P00519 [E255K]"}, "[24]": {"target": "NTRK1 (human) (UniProt P04629)", "sequence (P04629 whole entry, looked up)": "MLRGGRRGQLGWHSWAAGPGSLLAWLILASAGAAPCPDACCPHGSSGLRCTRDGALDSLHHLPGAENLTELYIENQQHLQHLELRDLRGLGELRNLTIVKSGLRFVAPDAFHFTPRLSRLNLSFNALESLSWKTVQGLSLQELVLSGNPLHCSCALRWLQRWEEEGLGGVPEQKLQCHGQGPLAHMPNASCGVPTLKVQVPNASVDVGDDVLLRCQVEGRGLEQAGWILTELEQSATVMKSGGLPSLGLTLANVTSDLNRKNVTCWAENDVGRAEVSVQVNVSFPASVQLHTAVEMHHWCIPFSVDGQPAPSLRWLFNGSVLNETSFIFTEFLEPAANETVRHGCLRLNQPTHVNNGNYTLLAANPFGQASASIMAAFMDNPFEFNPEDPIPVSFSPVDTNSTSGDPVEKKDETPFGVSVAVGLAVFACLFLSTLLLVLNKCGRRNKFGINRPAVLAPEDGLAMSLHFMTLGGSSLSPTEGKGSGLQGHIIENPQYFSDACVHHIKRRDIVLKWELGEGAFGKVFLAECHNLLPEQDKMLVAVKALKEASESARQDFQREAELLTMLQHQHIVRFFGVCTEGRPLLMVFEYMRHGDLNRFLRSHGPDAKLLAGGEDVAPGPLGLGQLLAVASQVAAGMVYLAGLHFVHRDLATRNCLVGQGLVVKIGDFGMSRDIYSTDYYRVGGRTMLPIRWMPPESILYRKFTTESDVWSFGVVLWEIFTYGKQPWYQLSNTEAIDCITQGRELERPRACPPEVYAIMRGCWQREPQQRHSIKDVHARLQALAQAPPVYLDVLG"}, "[25]": {"target": "PIM3 (human) (UniProt Q86V86)"}, "[26]": {"target": "NEK11 (human) (UniProt Q8NG66)"}, "[27]": {"target": "BTK (human) (UniProt Q06187)"}, "[28]": {"target": "CSNK1A1 (human) (UniProt P48729)"}, "[29]": {"target": "PAK6 (human) (UniProt Q9NQU5)", "sequence (Q9NQU5 whole entry, looked up)": "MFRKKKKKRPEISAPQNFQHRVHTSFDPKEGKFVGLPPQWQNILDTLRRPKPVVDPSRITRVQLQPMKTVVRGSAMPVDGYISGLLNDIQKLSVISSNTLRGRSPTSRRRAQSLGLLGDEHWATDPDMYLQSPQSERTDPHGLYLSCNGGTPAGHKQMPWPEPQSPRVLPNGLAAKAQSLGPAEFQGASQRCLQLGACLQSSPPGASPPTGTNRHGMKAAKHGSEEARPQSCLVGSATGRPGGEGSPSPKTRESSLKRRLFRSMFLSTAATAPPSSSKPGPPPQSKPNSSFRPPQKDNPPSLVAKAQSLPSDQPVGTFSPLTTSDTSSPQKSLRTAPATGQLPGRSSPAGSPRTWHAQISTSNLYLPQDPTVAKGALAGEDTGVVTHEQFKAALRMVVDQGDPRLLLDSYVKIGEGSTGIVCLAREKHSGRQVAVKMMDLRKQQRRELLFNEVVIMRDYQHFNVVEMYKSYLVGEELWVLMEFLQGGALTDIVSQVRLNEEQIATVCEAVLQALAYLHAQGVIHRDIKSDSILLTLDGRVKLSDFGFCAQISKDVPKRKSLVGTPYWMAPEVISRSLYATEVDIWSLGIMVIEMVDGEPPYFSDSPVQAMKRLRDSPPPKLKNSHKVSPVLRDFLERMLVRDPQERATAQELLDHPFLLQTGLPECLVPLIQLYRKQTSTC"}, "[30]": {"target": "STK32A (human) (UniProt Q8WU08)"}, "[31]": {"target": "PDGFRA (human) (UniProt P16234)"}, "[32]": {"target": "MYLK (human) (UniProt Q15746)"}, "[33]": {"target": "PIP5K1C (human) (UniProt O60331)"}, "[34]": {"target": "NEK4 (human) (UniProt P51957)", "sequence (P51957 whole entry, looked up)": "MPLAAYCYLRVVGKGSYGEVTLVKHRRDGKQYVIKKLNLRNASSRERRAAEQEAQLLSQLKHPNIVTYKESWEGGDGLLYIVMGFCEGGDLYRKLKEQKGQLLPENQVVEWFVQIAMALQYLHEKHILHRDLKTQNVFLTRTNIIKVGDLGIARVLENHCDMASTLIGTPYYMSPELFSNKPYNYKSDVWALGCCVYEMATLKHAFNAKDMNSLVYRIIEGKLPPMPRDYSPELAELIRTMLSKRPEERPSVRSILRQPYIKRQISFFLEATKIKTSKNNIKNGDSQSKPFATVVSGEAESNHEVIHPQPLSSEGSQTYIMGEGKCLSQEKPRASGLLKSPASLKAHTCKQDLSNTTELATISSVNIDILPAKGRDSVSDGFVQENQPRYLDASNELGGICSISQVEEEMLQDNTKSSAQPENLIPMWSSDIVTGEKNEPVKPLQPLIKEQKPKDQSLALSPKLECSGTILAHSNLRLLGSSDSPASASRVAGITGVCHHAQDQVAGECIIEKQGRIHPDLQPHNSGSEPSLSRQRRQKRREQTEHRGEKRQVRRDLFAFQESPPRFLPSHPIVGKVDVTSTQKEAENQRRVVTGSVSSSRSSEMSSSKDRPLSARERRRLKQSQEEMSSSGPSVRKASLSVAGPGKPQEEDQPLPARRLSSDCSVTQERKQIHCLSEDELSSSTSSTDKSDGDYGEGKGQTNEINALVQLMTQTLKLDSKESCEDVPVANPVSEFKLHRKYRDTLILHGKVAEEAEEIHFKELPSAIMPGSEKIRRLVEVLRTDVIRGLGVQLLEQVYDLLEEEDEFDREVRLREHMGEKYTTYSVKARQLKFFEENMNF"}, "[35]": {"target": "SBK1 (human) (UniProt Q52WX2)"}, "[36]": {"target": "TRPM6 (human) (UniProt Q9BX84)"}, "[37]": {"target": "ROCK2 (human) (UniProt O75116)"}, "[38]": {"target": "NTRK3 (human) (UniProt Q16288)"}, "[39]": {"target": "MAP4K5 (human) (UniProt Q9Y4K4)"}, "[40]": {"target": "SRPK3 (human) (UniProt Q9UPE1)"}, "[41]": {"target": "GAK (human) (UniProt O14976)"}, "[42]": {"target": "BMPR1B (human) (UniProt O00238)"}}, "data": [{"compound": "Cc1cc([C@@H](C)Nc2ccccc2C(=O)O)c2nc(N3CCOCC3)cc(=O)n2c1", "values": [{"measurement": "kinase still bound, per cent of control", "setting": "[1]", "result": 100, "unit": "%"}, {"measurement": "kinase still bound, per cent of control", "setting": "[2]", "result": 72, "unit": "%"}, {"measurement": "kinase still bound, per cent of control", "setting": "[3]", "result": 76, "unit": "%"}, {"measurement": "kinase still bound, per cent of control", "setting": "[4]", "result": 99, "unit": "%"}, {"measurement": "kinase still bound, per cent of control", "setting": "[5]", "result": 85, "unit": "%"}, {"measurement": "kinase still bound, per cent of control", "setting": "[6]", "result": 100, "unit": "%"}, {"measurement": "kinase still bound, per cent of control", "setting": "[7]", "result": 100, "unit": "%"}, {"measurement": "kinase still bound, per cent of control", "setting": "[8]", "result": 94, "unit": "%"}, {"measurement": "kinase still bound, per cent of control", "setting": "[9]", "result": 100, "unit": "%"}, {"measurement": "kinase still bound, per cent of control", "setting": "[10]", "result": 40, "unit": "%"}, {"measurement": "kinase still bound, per cent of control", "setting": "[11]", "result": 94, "unit": "%"}, {"measurement": "kinase still bound, per cent of control", "setting": "[12]", "result": 71, "unit": "%"}, {"measurement": "kinase still bound, per cent of control", "setting": "[13]", "result": 100, "unit": "%"}, {"measurement": "kinase still bound, per cent of control", "setting": "[14]", "result": 96, "unit": "%"}, {"measurement": "kinase still bound, per cent of control", "setting": "[15]", "result": 96, "unit": "%"}, {"measurement": "kinase still bound, per cent of control", "setting": "[16]", "result": 79, "unit": "%"}, {"measurement": "kinase still bound, per cent of control", "setting": "[17]", "result": 72, "unit": "%"}, {"measurement": "kinase still bound, per cent of control", "setting": "[18]", "result": 100, "unit": "%"}, {"measurement": "kinase still bound, per cent of control", "setting": "[19]", "result": 91, "unit": "%"}, {"measurement": "kinase still bound, per cent of control", "setting": "[20]", "result": 100, "unit": "%"}, {"measurement": "kinase still bound, per cent of control", "setting": "[21]", "result": 100, "unit": "%"}, {"measurement": "kinase still bound, per cent of control", "setting": "[22]", "result": 62, "unit": "%"}, {"measurement": "kinase still bound, per cent of control", "setting": "[23]", "result": 100, "unit": "%"}, {"measurement": "kinase still bound, per cent of control", "setting": "[24]", "result": 69, "unit": "%"}, {"measurement": "kinase still bound, per cent of control", "setting": "[25]", "result": 100, "unit": "%"}, {"measurement": "kinase still bound, per cent of control", "setting": "[26]", "result": 68, "unit": "%"}, {"measurement": "kinase still bound, per cent of control", "setting": "[27]", "result": 80, "unit": "%"}, {"measurement": "kinase still bound, per cent of control", "setting": "[28]", "result": 100, "unit": "%"}, {"measurement": "kinase still bound, per cent of control", "setting": "[29]", "result": 96, "unit": "%"}, {"measurement": "kinase still bound, per cent of control", "setting": "[30]", "result": 100, "unit": "%"}, {"measurement": "kinase still bound, per cent of control", "setting": "[31]", "result": 100, "unit": "%"}, {"measurement": "kinase still bound, per cent of control", "setting": "[32]", "result": 43, "unit": "%"}, {"measurement": "kinase still bound, per cent of control", "setting": "[33]", "result": 55, "unit": "%"}, {"measurement": "kinase still bound, per cent of control", "setting": "[34]", "result": 94, "unit": "%"}, {"measurement": "kinase still bound, per cent of control", "setting": "[35]", "result": 100, "unit": "%"}, {"measurement": "kinase still bound, per cent of control", "setting": "[36]", "result": 64, "unit": "%"}, {"measurement": "kinase still bound, per cent of control", "setting": "[37]", "result": 89, "unit": "%"}, {"measurement": "kinase still bound, per cent of control", "setting": "[38]", "result": 75, "unit": "%"}, {"measurement": "kinase still bound, per cent of control", "setting": "[39]", "result": 92, "unit": "%"}, {"measurement": "kinase still bound, per cent of control", "setting": "[40]", "result": 83, "unit": "%"}, {"measurement": "kinase still bound, per cent of control", "setting": "[41]", "result": 83, "unit": "%"}, {"measurement": "kinase still bound, per cent of control", "setting": "[42]", "result": 89, "unit": "%"}]}]}
